The values below come from patent US5658885A, “Amidino and guanidino substituted boronic acid inhibitors of trypsin-like enzymes” (The DuPont Merck Pharmaceutical Company, priority 1994, dated 1997).

The target in one test is T1, human thrombin (Homo sapiens, UniProt P00734).
T1 construct: 0.2-0.5 nM human thrombin or human factor Xa; purchased Enzyme Research Laboratories, South Bend, Ind
Nature of the test: Inhibition of thrombin hydrolysis of chromogenic substrate S2238 (Ki). As to conditions: S2238, pH 7.5. Type of test: biochemical. Put shortly: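 Purified human enzymes hydrolysing pNA substrates (thrombin S2238, factor Xa S2222, factor VIIa S2288), followed by absorbance at 405 nm over 30 min with velocities taken at 25-30 min. Thrombin and Xa were run in 0.10 M phosphate pH 7.5, 0.20 M NaCl, 0.5% PEG 8000. VIIa was run in 0.05 M Tris pH 7.6, 0.10 M NaCl, 4 mM CaCl2, 0.1% BSA, with Ki calculated from inhibited versus control velocities using substrate concentration and Km.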

Test [1] deals with thrombin clotting times. Nature of the test: Anticoagulant effect in vivo: identical model, activity measured by increases in thrombin clotting times. Further details: species or system conscious dogs or anesthetized rats. As to conditions: oral administration.
The next test addresses chymotrypsin (Bos taurus, UniProt P00766). As to conditions: Matteson et al. J. Am. Chem. Soc. 103: 5241 (1981); cited from earlier work.
In a further test the target is T2, human factor Xa (Homo sapiens, UniProt P00742).
T2 construct: 0.2-0.5 nM human thrombin or human factor Xa; purchased Enzyme Research Laboratories, South Bend, Ind
T2 sequence (P00742 235-488 limits assumed): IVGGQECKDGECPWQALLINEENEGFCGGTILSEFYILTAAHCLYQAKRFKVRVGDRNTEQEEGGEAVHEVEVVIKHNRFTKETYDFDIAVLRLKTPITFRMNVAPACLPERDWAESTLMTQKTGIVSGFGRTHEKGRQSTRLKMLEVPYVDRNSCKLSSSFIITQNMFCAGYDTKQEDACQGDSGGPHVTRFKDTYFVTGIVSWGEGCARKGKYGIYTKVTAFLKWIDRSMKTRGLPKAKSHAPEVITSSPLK
T2 sequence (P00742 41-179 limits assumed): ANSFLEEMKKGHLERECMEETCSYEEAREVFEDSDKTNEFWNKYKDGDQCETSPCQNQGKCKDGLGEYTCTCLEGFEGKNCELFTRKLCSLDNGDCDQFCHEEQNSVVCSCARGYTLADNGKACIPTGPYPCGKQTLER
Nature of the test: Inhibition of Factor Xa hydrolysis of chromogenic substrate S2222 (Ki). Type of test: biochemical. As to conditions: S2222, pH 7.5. How it is done:
(§1) The effectiveness of compounds of the present invention as inhibitors of blood coagulation proteases was determined using purified human proteases and synthetic substrates following procedures similar to those described in Kettner et al. (1990).
(§2) For these assays, the rate of enzymatic (thrombin, Factor Xa, and Factor VIIa) hydrolysis of chromogenic substrates (S2238 (H-D-Phe-Pip-Arg-pNA), S2222, and S2288, respectively; Kabi Pharmacia, Franklin, Ohio) was measured both in the absence and presence of compounds of the present invention. […] A decrease in the rate of absorbance change at 405 nm in the presence of inhibitor is indicative of enzyme inhibition. The results of this assay are expressed as inhibitory constant, Ki.
(§3) Thrombin and Xa determinations were made in 0.10M sodium phosphate buffer, pH 7.5, containing 0.20M NaCl, and 0.5% PEG 8000. VIIa determinations were made in 0.05M tris buffer, pH 7.6, containing 0.10M NaCl, 4 mM CaCl2, and 0.1% bovine serum albumin.
(§4) Reactions were allowed to go for 30 minutes and the velocities (rate of absorbance change vs time) were measured in the time frame of 25-30 minutes. The following relationship was used to calculate Ki values. [formula] where: vo is the velocity of the control in the absence of inhibitor;
(§5) vs is the velocity in the presence of inhibitor;
(§6) I is the concentration of inhibitor;
(§7) Ki is the dissociation constant of the enzyme: inhibitor complex;
(§8) S is the concentration of substrate;
(§9) Km is the Michaelis constant.

For test [2], the system named is thrombin clotting times. Nature of the test: Thrombin clotting time, concentration for 2-fold increase. As to conditions: 2-fold increase of thrombin clotting time. Type of test: biochemical.
The target in another test is T3, human factor VIIa (Homo sapiens, UniProt P08709).
T3 construct: 50 nM human factor VIIa (BiosPacific, Emeryville, Calif.); purchased BiosPacific, Emeryville, Calif
T3 sequence (P08709 213-466 limits assumed): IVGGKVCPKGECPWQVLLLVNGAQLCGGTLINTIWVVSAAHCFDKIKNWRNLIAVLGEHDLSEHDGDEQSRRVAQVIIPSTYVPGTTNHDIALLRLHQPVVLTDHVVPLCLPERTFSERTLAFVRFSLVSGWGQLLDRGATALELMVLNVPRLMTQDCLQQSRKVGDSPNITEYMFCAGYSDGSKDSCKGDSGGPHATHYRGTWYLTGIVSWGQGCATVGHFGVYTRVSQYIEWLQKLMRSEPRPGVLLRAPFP
T3 sequence (P08709 61-212 limits assumed): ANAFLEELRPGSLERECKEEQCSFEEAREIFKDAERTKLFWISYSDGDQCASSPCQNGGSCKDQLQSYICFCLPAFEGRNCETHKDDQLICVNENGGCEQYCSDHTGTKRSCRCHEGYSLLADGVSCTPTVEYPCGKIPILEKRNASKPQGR
Nature of the test: Inhibition of Factor VIIa hydrolysis of chromogenic substrate S2288 (Ki). Type of test: biochemical. The conditions noted are these: S2288, pH 7.6. How it is done: as §1, §2, §3, §4, §5, §6, §7, §8, §9

A word on the Ki: it is the dissociation constant of the complex between target and ligand, obtained from inhibition or displacement.

Take “Ac--(D)Phe--Pro--boroArg(CH3)--OH.HCl [Example 54]”: the Ki at human thrombin was < 0.5 µM. The “elevation in anticoagulant activity measured by increases in thrombin clotting times” value with thrombin clotting times [1] is on record as ≥ 2 fold.
In the case of `CC(=O)N[C@@H](Cc1ccccc1)B(O)O` [Ac-boroPhe--OH, R-1-acetamido-2-phenylethane boronic acid], the Ki on chymotrypsin is 4 µM.
On to “Ms--(D)Thiazolylalanine-Pro--boroPhe(m-CN)--C10 H16 [Example 31]”, for which the Ki at human thrombin and on human factor Xa was < 0.5 µM throughout. In addition, the “elevation in anticoagulant activity measured by increases in thrombin clotting times” value in the test on thrombin clotting times [1] is ≥ 2 fold.
For the compound “Boc--(D)Phe--Pro--boroOrn(CH=NH)]--OH.0.6 HCl.0.4 BSA [Example 7]”, the “concentration that increased thrombin clotting times 2-fold” value with thrombin clotting times [2] was < 0.075 µM. The Ki at human thrombin, at human factor VIIa and at human factor Xa was < 0.5 µM in each case.
For the compound `CC(=O)NC(Cc1ccccc1)C(=O)N1CCCC1C(=O)NC(Cc1cccc(C#N)c1)B1OC2CC3CC(C3(C)C)C2(C)O1` (centres unmarked) [Example 11, Ac--(D)Phe--Pro--boroPhe--(m-CN)--C10 H16], the “concentration that increased thrombin clotting times 2-fold” value in the test with thrombin clotting times [2] stood at 0.60 µM. Further, the inhibition constant (Ki) on human thrombin is < 0.5 µM; on human factor VIIa it was < 0.5 µM; on human factor Xa, < 50 µM.
